By MIC is commonly meant the lowest concentration that inhibits growth of the organism. Usually melting point stands for the temperature of the solid-liquid transition.

Converted amounts (≈) assume the structure as drawn.

Results on 42 molecules are retold here after patent US20220388953A1, “COMPOUNDS WITH ANTIMICROBIAL ACTIVITY” (The Hong Kong Polytechnic University, priority 2018, published 2022).

The test system of the first data set is Streptococcus pneumoniae (Klein) Chester (ATCC 49619). The data set can be described thus: Antimicrobial assay, broth microdilution (CLSI), MIC. It is filed as cell-based. The following applies: ATCC49619; Table 1; Streptococcus pneumoniae ATCC 49619; 20 h at 37° C.; read-out: MIC. The procedure: C3 derivatives were synthesized and antimicrobial activity measured against Streptococcus pneumoniae (MIC, minimum inhibitory concentration).
Bacterial Strains was used in this study is Streptococcus pneumoniae (Klein) Chester (ATCC® 49619™)
The antimicrobial activity of the compounds was determined by broth microdilution according to the Clinical & Laboratory Standards Institute (CLSI) guidelines. The test medium was cation-adjusted Mueller-Hinton broth (MH). Serial two-fold dilutions were performed for the tested chemicals starting from 256 μg/mL to 0.5 μg/mL, and the bacterial cell inoculum was adjusted to approximately 5×10^5 CFU/mL. Results were taken after 20 h of incubation at 37° C. The MIC was defined as the lowest concentration of antibiotic with no visible growth. Experiments were performed in duplicates.
(Dilution methods test growth across graded concentrations, often in twofold steps.)
With `COc1ccccc1Sc1ccc(C(=O)c2ccccc2C(=O)O)cc1[N+](=O)[O-]` [C3-2, 2-(4-((2-Methoxyphenyl)thio)-3-nitrobenzoyl)benzoic Acid], the MIC turned out to be 128 µg/mL (≈ 313 µM).
Same read-out and setting: the same measure for `O=C(O)c1ccccc1C(=O)c1ccc(Sc2ccccc2F)c([N+](=O)[O-])c1` [C3-3, 2-(4-((2-Fluorophenyl)thio)-3-nitrobenzoyl)benzoic Acid]: 128 µg/mL (≈ 322 µM).
Take `NC1CCCCC1Nc1ccc(C(=O)c2ccccc2C(=O)O)cc1[N+](=O)[O-]` (centres unmarked) [C3-28, 2-(4-((2-Aminocyclohexyl)amino)-3-nitrobenzoyl)benzoic Acid]: the MIC came to 256 µg/mL (≈ 668 µM).

Staying with this data set, now noted: ATCC49619; Table 3; Streptococcus pneumoniae ATCC 49619; 20 h at 37° C.; read-out: MIC.
On to `Nc1ccccc1Sc1ccc(C2(O)NC(=O)c3ccccc32)cc1[N+](=O)[O-]` (centres unmarked) [C3-39], for which the minimum inhibitory concentration (MIC) amounted to 32 µg/mL (≈ 81.3 µM).
The same measure, in the same setting: the same measure for `NC(=O)c1cccc(N2C(=O)c3ccccc3C2(O)c2ccc(Sc3ccccc3N)c([N+](=O)[O-])c2)c1` (centres unmarked) [C3-42]: 32 µg/mL (≈ 62.4 µM); for `CC(C)(C)c1cccc(N2C(=O)c3ccccc3C2(O)c2ccc(Sc3ccccc3N)c([N+](=O)[O-])c2)c1` (centres unmarked) [C3-44]: more than 256 µg/mL; for `Cc1cccc(N2C(=O)c3ccccc3C2(O)c2ccc(Sc3ccccc3N)c([N+](=O)[O-])c2)c1` (centres unmarked) [C3-45]: more than 256 µg/mL.
As to `Nc1ccccc1Sc1ccc(C2(O)c3ccccc3C(=O)N2Cc2ccccc2)cc1[N+](=O)[O-]` (centres unmarked) [C3-47], the minimum inhibitory concentration (MIC) was more than 256 µg/mL.
Take `Nc1ccccc1Sc1ccc(C2(O)c3ccccc3C(=O)N2Cc2ccccc2F)cc1[N+](=O)[O-]` (centres unmarked) [C3-48]: the MIC is more than 256 µg/mL.

The data set is the same for the next values; noted with them: Streptococcus pneumoniae, ATCC49619, 20 h.
`Nc1cccc(Sc2ccc(C(=O)c3ccccc3C(=O)O)cc2[N+](=O)[O-])c1` [C3-5, 2-(4-((3-Aminophenyl)thio)-3-nitrobenzoyl)benzoic Acid] returned a minimum inhibitory concentration (MIC) of 64 µg/mL (≈ 162 µM).
In turn, `Nc1ccc(Sc2ccc(C(=O)c3ccccc3C(=O)O)cc2[N+](=O)[O-])cc1` [C3-6, 2-(4-((4-Aminophenyl)thio)-3-nitrobenzoyl)benzoic Acid] came in with an MIC of 128 µg/mL (≈ 325 µM).
For `Nc1cc(Cl)ccc1Sc1ccc(C(=O)c2ccccc2C(=O)O)cc1[N+](=O)[O-]` [C3-10, 2-(4-((2-Amino-4-chlorophenyl)thio)-3-nitrobenzoyl)benzoic Acid], the MIC came out at 64 µg/mL (≈ 149 µM).
On to `O=C(O)c1ccccc1C(=O)c1ccc(Sc2ccc(Cl)c(Cl)c2)c([N+](=O)[O-])c1` [C3-13, 2-(4-((3,4-Dichlorophenyl)thio)-3-nitrobenzoyl)benzoic Acid], for which inhibition of growth (MIC) required 8 µg/mL (≈ 17.8 µM).
Same read-out and setting: the same measure for `Nc1ccccc1Sc1ccc(C2(O)c3ccccc3C(=O)N2c2ccccc2)cc1[N+](=O)[O-]` (centres unmarked) [C3-41]: more than 256 µg/mL; for `Nc1ccccc1Sc1ccc(C2(O)c3ccccc3C(=O)N2c2cccc(C(=O)O)c2)cc1[N+](=O)[O-]` (centres unmarked) [C3-43]: 64 µg/mL (≈ 125 µM); for `Nc1ccccc1Sc1ccc(C2(O)c3ccccc3C(=O)N2c2cccc(Cl)c2)cc1[N+](=O)[O-]` (centres unmarked) [C3-46]: more than 256 µg/mL.

System in the next data set: not given
Assay: not given
Conditions: not given
Consider `O=C(O)c1ccccc1C(=O)c1ccc(Nc2cccc(Cl)c2)c([N+](=O)[O-])c1`, for which the melting point was 159 to 161 °C.
Same read-out and setting: as for `COc1ccccc1Sc1ccc(C(=O)c2ccccc2C(=O)O)cc1[N+](=O)[O-]` [C3-2, 2-(4-((2-Methoxyphenyl)thio)-3-nitrobenzoyl)benzoic Acid], the figure is 209 to 211 °C; as for `O=C(O)c1ccccc1C(=O)c1ccc(Sc2ccccc2F)c([N+](=O)[O-])c1` [C3-3, 2-(4-((2-Fluorophenyl)thio)-3-nitrobenzoyl)benzoic Acid], 175 to 176 °C.
In turn, `Nc1ccccc1Sc1ccc(C(=O)Nc2cccc(C(=O)O)c2)cc1[N+](=O)[O-]` [C3-026, 3-(4-((2-Aminophenyl)thio)-3-nitrobenzamido)benzoic Acid] came in with a melting point of 251 to 252 °C.
Same read-out and setting: the same measure for `Nc1ccccc1Sc1ccc(CNc2cccc(C(=O)O)c2)cc1[N+](=O)[O-]` [C3-027, 3-((4-((2-Aminophenyl)thio)-3-nitrobenzyl)amino)benzoic Acid]: 105 to 107 °C; for `O=C(O)c1cccc(NCc2ccc(Sc3ccc(Cl)c(Cl)c3)c([N+](=O)[O-])c2)c1` [C3-047, 3-((4-((3,4-Dichlorophenyl)thio)-3-nitrobenzyl)amino)benzoic Acid]: 224 to 226 °C.
On the same count and under the same terms, as for `O=C(O)c1cccc(NC(=O)c2ccc(Sc3ccc(Cl)c(Cl)c3)c([N+](=O)[O-])c2)c1` [C3-048, 3-(4-((3,4-Dichlorophenyl)thio)-3-nitrobenzamido)benzoic Acid], the figure is 280 to 282 °C.
For the molecule `Nc1ccccc1Sc1ccc(C(=O)Nc2ccc(C(=O)O)cc2)cc1[N+](=O)[O-]` [C3-056, 4-(4-((2-Aminophenyl)thio)-3-nitrobenzamido)benzoic Acid], the melting point is 247 to 249 °C.
Same read-out and setting: the same measure for `Nc1ccccc1Sc1ccc(C(=O)Nc2ccccc2C(=O)O)cc1[N+](=O)[O-]` [C3-057, 2-(4-((2-Aminophenyl)thio)-3-nitrobenzamido)benzoic Acid]: 259 to 261 °C; for `Nc1ccccc1Sc1ccc(CNc2ccccc2C(=O)O)cc1[N+](=O)[O-]` [C3-065, 2-((4-((2-Aminophenyl)thio)-3-nitrobenzyl)amino)benzoic Acid]: 201 to 203 °C.
Molecule `NC(=O)c1cccc(NCc2ccc(Sc3ccc(Cl)c(Cl)c3)c([N+](=O)[O-])c2)c1` [C3-066, 3-((4-((3,4-Dichlorophenyl)thio)-3-nitrobenzyl)amino)benzamide] registered a melting point of 158 to 160 °C.
The molecule `O=C(O)c1ccc(Cl)c(NCc2ccc(Sc3ccc(Cl)c(Cl)c3)c([N+](=O)[O-])c2)c1` [C3-071, 4-Chloro-3-((4-((3,4-dichlorophenyl)thio)-3-nitrobenzyl)amino)benzoic Acid] showed a melting point of 196 to 198 °C.
Still for that read-out and setting: as for `O=C(O)c1ccc(N2CCOCC2)c(NCc2ccc(Sc3ccc(Cl)c(Cl)c3)c([N+](=O)[O-])c2)c1` [C3-073, 3-((4-((3,4-Dichlorophenyl)thio)-3-nitrobenzyl)amino)-4-morpholinobenzoic Acid], the figure is 147 to 149 °C; as for `NS(=O)(=O)c1cccc(NCc2ccc(Sc3ccc(Cl)c(Cl)c3)c([N+](=O)[O-])c2)c1` [C3-074, 3-((4-((3,4-Dichlorophenyl)thio)-3-nitrobenzyl)amino)benzenesulfonamide], 191 to 193 °C; as for `Cc1ccc(C(=O)O)cc1NCc1ccc(Sc2ccc(Cl)c(Cl)c2)c([N+](=O)[O-])c1` [C3-075, 3-((4-((3,4-Dichlorophenyl)thio)-3-nitrobenzyl)amino)-4-methylbenzoic Acid], 222 to 224 °C.
Same read-out and setting: as for `O=C(Nc1ccccc1C(=O)O)c1ccc(Sc2ccc(Cl)c(Cl)c2)c([N+](=O)[O-])c1` [C3-077, 2-(4-((3,4-Dichlorophenyl)thio)-3-nitrobenzamido)benzoic Acid], the figure is 279 to 281 °C; as for `O=C(O)c1ccc(Br)c(NCc2ccc(Sc3ccc(Cl)c(Cl)c3)c([N+](=O)[O-])c2)c1` [C3-078, 4-Bromo-3-((4-((3,4-dichlorophenyl)thio)-3-nitrobenzyl)amino)benzoic Acid], 231 to 233 °C; as for `O=C(O)c1cc(NCc2ccc(Sc3ccc(Cl)c(Cl)c3)c([N+](=O)[O-])c2)ccc1Cl` [C3-079, 2-Chloro-5-((4-((3,4-dichlorophenyl)thio)-3-nitrobenzyl)amino)benzoic Acid], 148 to 150 °C.
Still for that read-out and setting: as for `O=[N+]([O-])c1cc(CNc2cccc(CO)c2)ccc1Sc1ccc(Cl)c(Cl)c1` [C3-080, (3-((4-((3,4-Dichlorophenyl)thio)-3-nitrobenzyl)amino)phenyl)methanol], the figure is 118 to 120 °C.
`O=C(O)c1ccccc1NCc1ccc(Sc2ccc(Cl)c(Cl)c2)c([N+](=O)[O-])c1` [C3-081, 2-((4-((3,4-Dichlorophenyl)thio)-3-nitrobenzyl)amino)benzoic Acid] came in with a melting point of 171 to 173 °C.
Still for that read-out and setting: the same measure for `O=C(O)c1ccc(F)c(NCc2ccc(Sc3ccc(Cl)c(Cl)c3)c([N+](=O)[O-])c2)c1` [C3-082, 3-((4-((3,4-Dichlorophenyl)thio)-3-nitrobenzyl)amino)-4-fluorobenzoic Acid]: 237 to 239 °C; for `O=C(O)c1ccccc1C(=O)c1ccc(Sc2ccc(Cl)c(Cl)c2)cc1` [C3-083, 2-(4-((3,4-Dichlorophenyl)thio)benzoyl)benzoic Acid]: 164 to 166 °C; for `O=C(O)c1ccc(Cl)cc1NCc1ccc(Sc2ccc(Cl)c(Cl)c2)c([N+](=O)[O-])c1` [C3-087, 4-Chloro-2-((4-((3,4-dichlorophenyl)thio)-3-nitrobenzyl)amino)benzoic Acid]: 220 to 222 °C.
On to `O=C(O)c1c(Cl)cccc1NCc1ccc(Sc2ccc(Cl)c(Cl)c2)c([N+](=O)[O-])c1` [C3-088, 2-Chloro-6-((4-((3,4-Dichlorophenyl)thio)-3-nitrobenzyl)amino)benzoic Acid], for which the melting point was in the range of 204 to 206 °C.
On to `NC(=O)c1ccccc1NCc1ccc(Sc2ccc(Cl)c(Cl)c2)c([N+](=O)[O-])c1` [C3-090, 2-((4-((3,4-Dichlorophenyl)thio)-3-nitrobenzyl)amino)benzamide], for which the melting point was in the range of 184 to 186 °C.
Same read-out and setting: as for `N#Cc1ccccc1NCc1ccc(Sc2ccc(Cl)c(Cl)c2)c([N+](=O)[O-])c1` [C3-091, 2-((4-((3,4-Dichlorophenyl)thio)-3-nitrobenzyl)amino)benzonitrile], the figure is 173 to 175 °C; as for `Nc1cc(C(=O)c2ccccc2C(=O)O)ccc1Sc1ccc(Cl)c(Cl)c1` [C3-094, 2-(3-Amino-4-((3,4-dichlorophenyl)thio)benzoyl)benzoic Acid], 188 to 190 °C; as for `CN(C)c1cc(C(=O)c2ccccc2C(=O)O)ccc1Sc1ccc(Cl)c(Cl)c1` [C3-095, 2-(4-((3,4-Dichlorophenyl)thio)-3-(dimethylamino)benzoyl)benzoic Acid], 144 to 146 °C.
